Values joined by “and” are separate entries in the source; they are usually repeats but may differ in a detail not shown here. Identical values can stand only once. Like-named read-outs stand apart in the source and are kept apart here.
How the values were obtained:
SARS-CoV-2 = type: in vivo, Syrian golden hamster; details: for Infectious virus in the lung (TCID50), Copy number, individual animal / Infectious virus in the lung (TCID50), Log 10, individual animal / Viral load (viral RNA) in the lung, Copy number, individual animal / Viral load (viral RNA) in the lung, Log 10, individual animal / Infectious virus in the lung (TCID50), average Log 10 / Infectious virus in the lung (TCID50), median Log 10 / Viral load (viral RNA) in the lung, average Log 10 / Viral load (viral RNA) in the lung, median Log 10: 250mg/kg/ BID; for Infectious virus in the lung (TCID50), average Log 10 / Infectious virus in the lung (TCID50), median Log 10 / Viral load (viral RNA) in the lung, average Log 10 / Viral load (viral RNA) in the lung, median Log 10: n=5
[1] = Post-exposure Syrian golden hamster model, body weight; details: in vivo
[2] = test system: SARS-CoV-2 (USA-WA1/2020); design: species or system Syrian golden hamster; details: hamster, in vivo

With `CC(C)(C)[C@H](NC(=O)C(F)(F)F)C(=O)N1C[C@H]2[C@@H]([C@H]1C(=O)N[C@H](C#N)C[C@@H]1CCNC1=O)C2(C)C` [nirmatrelvir, reference compound] as the compound, how does the “Infectious virus in the lung (TCID50), Copy number, individual animal” value (SARS-CoV-2; 10 h post exposure) read?
Its value is 2.74E+02 and 1.40E+02 and 3.86E+02.

What about the “Infectious virus in the lung (TCID50), Log 10, individual animal” value (“Infectious virus … Log 10, individual animal” below) (SARS-CoV-2; 10 h post exposure) of the same compound?
The value was 2.44 Log 10 and 3.68 Log 10 and 2.14 Log 10 and 3.67 Log 10 and 2.59 Log 10.

And the “Viral load (viral RNA) in the lung, Copy number, individual animal” value (“Viral load … Copy number, individual animal” below) (SARS-CoV-2; 10 h post exposure)?
Its value is 3.26E+07 and 1.08E+07 and 4.11E+07 and 4.76E+07 and 5.79E+06.

What about the “Viral load (viral RNA) in the lung, Log 10, individual animal” value (“Viral load … Log 10, individual animal” for short) (SARS-CoV-2; 10 h post exposure) of the same compound?
The value was 7.51 Log 10 and 7.03 Log 10 and 7.61 Log 10 and 7.68 Log 10 and 6.76 Log 10.

What about the “Infectious virus in the lung (TCID50), average Log 10” value (“Infectious virus … average Log 10” for short) (SARS-CoV-2; 10 h post exposure) of the same compound?
The value was 2.90 Log 10.

And the “Infectious virus in the lung (TCID50), median Log 10” value (from here on “Infectious virus … median Log 10”) (SARS-CoV-2; 10 h post exposure)?
The value was 2.59 Log 10.

And the “Viral load (viral RNA) in the lung, average Log 10” value (“Viral load … average Log 10” for short) (SARS-CoV-2; 10 h post exposure)?
The value was 7.32 Log 10.

And the “Viral load (viral RNA) in the lung, median Log 10” value (from here on “Viral load … median Log 10”) (SARS-CoV-2; 10 h post exposure)?
The value was 7.51 Log 10.

What about the “Infectious virus in the lung (TCID50), Copy number, individual animal” value (SARS-CoV-2; 24 h post exposure) of the same compound?
Its value is 3.74E+03 and 5.43E+02 and 1.15E+04 and 7.40E+03.

And the “Infectious virus … Log 10, individual animal” value (SARS-CoV-2; 24 h post exposure)?
Its value is 3.57 Log 10 and 2.74 Log 10 and 4.06 Log 10 and 3.67 Log 10 and 3.87 Log 10.

What about the “Viral load … Copy number, individual animal” value (SARS-CoV-2; 24 h post exposure) of the same compound?
The value was 4.02E+07 and 9.08E+07 and 1.10E+07 and 3.49E+07 and 2.71E+07.

And the “Viral load … Log 10, individual animal” value (SARS-CoV-2; 24 h post exposure)?
The value was 7.60 Log 10 and 7.96 Log 10 and 7.04 Log 10 and 7.54 Log 10 and 7.43 Log 10.

What about the “Infectious virus … average Log 10” value (SARS-CoV-2; 24 h post exposure) of the same compound?
Its value is 3.58 Log 10.

And the “Infectious virus … median Log 10” value (SARS-CoV-2; 24 h post exposure)?
Its value is 3.67 Log 10.

What about the “Viral load … average Log 10” value (SARS-CoV-2; 24 h post exposure) of the same compound?
The value was 7.52 Log 10.

What about the “Viral load … median Log 10” value (SARS-CoV-2; 24 h post exposure) of the same compound?
Its value is 7.54 Log 10.

What about the “Infectious virus in the lung (TCID50), Copy number, individual animal” value (SARS-CoV-2; 48 h post exposure) of the same compound?
The value was 5.70E+02 and 4.90E+02 and 1.00E+02 and 6.63E+02 and 1.50E+03.

What about the “Infectious virus … Log 10, individual animal” value (SARS-CoV-2; 48 h post exposure) of the same compound?
Its value is 2.76 Log 10 and 2.69 Log 10 and 2.00 Log 10 and 2.82 Log 10 and 3.17 Log 10.

What about the “Viral load … Copy number, individual animal” value (SARS-CoV-2; 48 h post exposure) of the same compound?
The value was 1.41E+08 and 2.05E+07 and 3.56E+08 and 4.63E+07 and 6.23E+07.

And the “Viral load … Log 10, individual animal” value (SARS-CoV-2; 48 h post exposure)?
Its value is 8.15 Log 10 and 7.31 Log 10 and 8.55 Log 10 and 7.67 Log 10 and 7.79 Log 10.

And the “Infectious virus … average Log 10” value (SARS-CoV-2; 48 h post exposure)?
Its value is 2.69 Log 10.

What about the “Infectious virus … median Log 10” value (SARS-CoV-2; 48 h post exposure) of the same compound?
The value was 2.76 Log 10.

What about the “Viral load … average Log 10” value (SARS-CoV-2; 48 h post exposure) of the same compound?
The value was 7.89 Log 10.

And the “Viral load … median Log 10” value (SARS-CoV-2; 48 h post exposure)?
The value was 7.79 Log 10.

And the “reduction of lung viral RNA load and infectious virus (in words)” value (SARS-CoV-2; post-exposure, 250 mg per kg BID)?
The value was “not significant”.

And the “Average body weight change (%) on day 4 compared to day 0” value [1]?
The value was -2.756% and -3.747% and -5.087%.

And the “Infectious SARS-CoV2 virus in the lung, Avg” value [2]?
Its value is 4651963 PFU/g Lung.

What about the “Infectious SARS-CoV2 virus in the lung, Log10, Avg” value [2] of the same compound?
The value was 5.697 Log10 PFU/g Lung.

What about the “SARS-CoV2 viral load (viral RNA) in the lung, Avg” value [2] of the same compound?
Its value is 46452968 RNA copies/mL.

What about the “SARS-CoV2 viral load (viral RNA) in the lung, Log10, Avg” value [2] of the same compound?
The value was 6.876 Log10 RNA copies/mL.
